Experimental data reported in patent publication EP1816121B1, “9-Chloro-15-deoxyprostaglandin derivatives, process for their preparation and their use as medicaments” (Bayer Schering Pharma Aktiengesellschaft, priority 2005, dated 2007).

How the values were obtained:
[1] = test system: Human monocyte derived dendritic cells; experiment: Inhibition of human monocyte derived dendritic cell cytokine release, IL-12; format: cell-based; conditions: 18 h
Text: (§1) Following stimulation through the toll-like receptors (TLR) DCs express and release proinflammatory cytokines and chemokines and may induce activation and proliferation of naïve T cells. The binding of an EP2 agonist to the DC EP receptor inhibits TLR4 ligand (LPS) stimulated Interleukin 12 (IL-12) release. […] Therefore an EP2 agonist skews the CD4 T cell differentiation away from the Th- lineage.
IL-12 is a 75 kDa glycoprotein heterodimer (p70) composed of two genetically unrelated subunits linked by a disulfide bond. Enzyme linked immuno sorbant assays (ELISA) based on antibodies specific to IL-12 p70 are commercially available. Standards and samples are pipetted into the wells of a microplate. An antibody specific to human IL-12 is added to the wells. A substrate is added to the wells and color develops in proportion to the amount of IL-12 bound. The intensity of the color is measured.
(§2) Human monocyte derived dendritic cells are isolated from human donors using a Ficoll density gradient and residual erythrocytes removed by selective lysis. CD14 MicroBeads are used for separation of human cells based on the expression of the CD14 antigen. The dendritic cells are cultured at approximately 1.5 x 10^6 cells per ml in RPMI 1640 with fetal bovine serum, 200 ng/ml GM-CSF (Leukine) and 10 ng/ml IL-4. The cells grow-for a period of 3 days and then the media is changed. 10ng/ml LPS is used to activate the cells. 1µM of substance (EP2 agonist) and 1µM of PGE2 are added during the LPS stimulation. Cells are incubated for approximately 18 hr at 37C. IL-12 and II-10 released during activation is measured by ELISA.

[2] = test system: Human monocyte derived dendritic cells; experiment: Human monocyte derived dendritic cell cytokine release, IL-10; format: cell-based; conditions: 18 h
Text: as §1
IL-10 initially designated cytokine synthesis inhibitory factor (CSIF), was originally identified as a product of Th-2 clones that suppressed the production of cytokines by Th-1 clones responding to stimulation by antigen in the presence of antigen-presenting cells. IL-10 is a dimer composed of two identical 160 amino acid subunits. Enzyme linked immuno sorbant assays (ELISA) based on antibodies specific to IL-10 are commercially available. Standards and samples are pipetted into the wells of a microplate. An antibody specific to human IL-10 is added to the wells. A substrate is added to the wells and color develops in proportion to the amount of IL-10 bound. The intensity of the color is measured.
as §2

[3] = Donor 1, read-out: % inhibition below untreated, LPS- stimulated control
[4] = Donor 2, read-out: % inhibition below untreated, LPS- stimulated control
[5] = Donor 3, read-out: % inhibition below untreated, LPS- stimulated control

CCCCC[C@H](O)/C=C/[C@H]1[C@H](O)CC(=O)[C@@H]1C/C=C\CCCC(=O)O [PGE2, prostaglandin E2]
inhibition at 1 µM [1, 3]: 78% | inhibition at 1 µM [1, 4]: 44% | inhibition at 1 µM [1, 5]: 84% | inhibition at 1 µM ([1]; Donor 4, read-out: % inhibition below untreated, LPS- stimulated control): 29% | inhibition at 1 µM [2, 3]: 103% | inhibition at 1 µM [2, 4]: 134% | inhibition at 1 µM [2, 5]: 107%
